The text below walks through data of patent US11834453B2, “Substituted pyrimido[5,4-d]pyrimidines as HER2 inhibitors” (Array BioPharma Inc., priority 2020, dated 2023).

In data set [1] the target is EGFR wild type (EGFR WT) (Homo sapiens (Human), UniProt P00533). Nature of the data set: Cellular phosphorylation assay, EGF-stimulated EGFR phosphorylation in engineered NIH 3T3 cells, Phospho-EGFR DuoSet IC ELISA, Assay 5. In kind it is cell-based. An outline of the steps: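 Phospho-EGFR ELISA on lysates of engineered NIH 3T3 EGFR WT cells, IC50 derived from concentration curves. Cells plated at 20,000/well overnight, given compound dilutions 1 h at 37 °C, then rEGF 100 ng/ml for a further 10 min before lysis.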

In data set [2] the target is BCRP (Homo sapiens (Human), UniProt Q9UNQ0). In words: BCRP transfected MDCKII canine Mdr1 knockout permeability/efflux, Assay 9. The settings on record: dog.
BCRP, sequence (Q9UNQ0 whole entry): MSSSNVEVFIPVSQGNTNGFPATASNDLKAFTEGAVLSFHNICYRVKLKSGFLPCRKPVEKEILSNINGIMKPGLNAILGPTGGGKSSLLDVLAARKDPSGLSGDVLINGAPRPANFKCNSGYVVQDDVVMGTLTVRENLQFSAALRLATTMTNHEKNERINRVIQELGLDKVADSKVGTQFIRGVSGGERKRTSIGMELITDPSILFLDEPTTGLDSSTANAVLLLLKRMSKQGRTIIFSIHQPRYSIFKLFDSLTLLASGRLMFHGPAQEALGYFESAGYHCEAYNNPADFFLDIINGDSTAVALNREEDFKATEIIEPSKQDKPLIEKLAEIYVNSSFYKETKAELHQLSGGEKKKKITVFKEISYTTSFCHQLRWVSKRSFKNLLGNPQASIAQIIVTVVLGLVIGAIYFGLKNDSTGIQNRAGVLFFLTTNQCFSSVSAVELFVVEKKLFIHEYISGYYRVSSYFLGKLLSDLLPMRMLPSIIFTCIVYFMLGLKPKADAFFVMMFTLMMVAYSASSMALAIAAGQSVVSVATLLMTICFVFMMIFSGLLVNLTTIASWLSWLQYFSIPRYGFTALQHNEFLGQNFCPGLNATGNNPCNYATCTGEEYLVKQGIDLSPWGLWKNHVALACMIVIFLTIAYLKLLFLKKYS
For data set [3], the target named is EGFR (Homo sapiens (Human), UniProt P00533). Nature of the data set: ErbB enzyme assay (CisBio HTRF KinEASE-TK), Assay 3. In kind it is biochemical. In a few lines: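 Using a time-resolved FRET read-out, tyrosine phosphorylation of 250 nM biotin substrate at 1 mM ATP (pH 7.4, 10 mM MgCl2, 2% DMSO, 22 °C, 30 min) was quantified against DMSO and pre-quenched controls; IC50 taken at 50% of control.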
In general terms: In TR-FRET formats the signal depends on donor and acceptor labels being close together.

For data set [4], the target named is ErbB2 insYVMA (HER2-YVMA, SEQ ID NO: 2) (Homo sapiens, UniProt P04626, INS775YVMA/P1170A). Nature of the data set: biochemical. Conditions: ErbB2 insYVMA enzyme assay; read-out: Assay 1 IC50.
ErbB2 insYVMA (HER2-YVMA, SEQ ID NO: 2), sequence (P04626 with tags, fused parts or gaps INS775YVMA/P1170A limits assumed): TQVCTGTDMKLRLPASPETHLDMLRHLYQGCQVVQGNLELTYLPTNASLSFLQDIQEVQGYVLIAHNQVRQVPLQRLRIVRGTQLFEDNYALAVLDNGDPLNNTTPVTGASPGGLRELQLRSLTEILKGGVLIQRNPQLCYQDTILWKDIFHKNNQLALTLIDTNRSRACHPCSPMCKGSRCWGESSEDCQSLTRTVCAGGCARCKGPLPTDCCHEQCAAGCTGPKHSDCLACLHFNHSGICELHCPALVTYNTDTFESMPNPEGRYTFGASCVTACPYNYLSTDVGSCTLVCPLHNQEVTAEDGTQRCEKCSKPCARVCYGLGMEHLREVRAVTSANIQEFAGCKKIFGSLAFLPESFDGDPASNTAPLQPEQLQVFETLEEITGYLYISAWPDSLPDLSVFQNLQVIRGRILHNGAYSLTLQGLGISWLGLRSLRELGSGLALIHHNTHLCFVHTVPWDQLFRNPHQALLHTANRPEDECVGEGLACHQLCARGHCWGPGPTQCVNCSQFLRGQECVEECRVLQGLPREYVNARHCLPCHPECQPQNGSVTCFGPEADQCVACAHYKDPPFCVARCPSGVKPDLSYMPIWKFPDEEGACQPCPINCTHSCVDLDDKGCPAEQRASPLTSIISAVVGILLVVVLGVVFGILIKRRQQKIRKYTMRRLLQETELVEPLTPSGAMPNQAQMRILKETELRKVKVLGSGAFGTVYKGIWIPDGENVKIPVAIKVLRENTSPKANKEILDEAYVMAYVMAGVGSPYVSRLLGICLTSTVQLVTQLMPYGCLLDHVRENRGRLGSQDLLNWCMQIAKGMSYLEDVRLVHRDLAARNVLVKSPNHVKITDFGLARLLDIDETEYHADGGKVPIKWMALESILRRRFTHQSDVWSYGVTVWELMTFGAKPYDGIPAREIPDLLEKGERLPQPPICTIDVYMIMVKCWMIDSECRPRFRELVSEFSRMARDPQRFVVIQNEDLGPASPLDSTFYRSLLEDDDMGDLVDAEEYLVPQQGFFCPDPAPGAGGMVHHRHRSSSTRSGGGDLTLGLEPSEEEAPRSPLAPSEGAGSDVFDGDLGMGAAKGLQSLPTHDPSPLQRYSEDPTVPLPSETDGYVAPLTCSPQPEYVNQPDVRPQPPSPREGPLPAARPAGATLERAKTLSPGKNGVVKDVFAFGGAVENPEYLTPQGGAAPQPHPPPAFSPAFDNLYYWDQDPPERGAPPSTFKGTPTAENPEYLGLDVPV
The target of data set [5] is ErbB2 WT (Homo sapiens (Human), UniProt P04626). In words: ErbB enzyme assay (CisBio HTRF KinEASE-TK), Assay 2. The class given is biochemical. An outline of the steps: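 Readout is HTRF KinEASE-TK, using Sa-XL665 and cryptate antibody for 1 h at 22 °C, as percent of control between DMSO-only (100) and pre-quenched (0) reactions. The kinase reaction runs 30 min at 22 °C with 1 mM ATP and 250 nM biotinylated TK substrate, in HEPES pH 7.4 with MgCl2 and 2% DMSO.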
ErbB2 WT, sequence (P04626 23-1255): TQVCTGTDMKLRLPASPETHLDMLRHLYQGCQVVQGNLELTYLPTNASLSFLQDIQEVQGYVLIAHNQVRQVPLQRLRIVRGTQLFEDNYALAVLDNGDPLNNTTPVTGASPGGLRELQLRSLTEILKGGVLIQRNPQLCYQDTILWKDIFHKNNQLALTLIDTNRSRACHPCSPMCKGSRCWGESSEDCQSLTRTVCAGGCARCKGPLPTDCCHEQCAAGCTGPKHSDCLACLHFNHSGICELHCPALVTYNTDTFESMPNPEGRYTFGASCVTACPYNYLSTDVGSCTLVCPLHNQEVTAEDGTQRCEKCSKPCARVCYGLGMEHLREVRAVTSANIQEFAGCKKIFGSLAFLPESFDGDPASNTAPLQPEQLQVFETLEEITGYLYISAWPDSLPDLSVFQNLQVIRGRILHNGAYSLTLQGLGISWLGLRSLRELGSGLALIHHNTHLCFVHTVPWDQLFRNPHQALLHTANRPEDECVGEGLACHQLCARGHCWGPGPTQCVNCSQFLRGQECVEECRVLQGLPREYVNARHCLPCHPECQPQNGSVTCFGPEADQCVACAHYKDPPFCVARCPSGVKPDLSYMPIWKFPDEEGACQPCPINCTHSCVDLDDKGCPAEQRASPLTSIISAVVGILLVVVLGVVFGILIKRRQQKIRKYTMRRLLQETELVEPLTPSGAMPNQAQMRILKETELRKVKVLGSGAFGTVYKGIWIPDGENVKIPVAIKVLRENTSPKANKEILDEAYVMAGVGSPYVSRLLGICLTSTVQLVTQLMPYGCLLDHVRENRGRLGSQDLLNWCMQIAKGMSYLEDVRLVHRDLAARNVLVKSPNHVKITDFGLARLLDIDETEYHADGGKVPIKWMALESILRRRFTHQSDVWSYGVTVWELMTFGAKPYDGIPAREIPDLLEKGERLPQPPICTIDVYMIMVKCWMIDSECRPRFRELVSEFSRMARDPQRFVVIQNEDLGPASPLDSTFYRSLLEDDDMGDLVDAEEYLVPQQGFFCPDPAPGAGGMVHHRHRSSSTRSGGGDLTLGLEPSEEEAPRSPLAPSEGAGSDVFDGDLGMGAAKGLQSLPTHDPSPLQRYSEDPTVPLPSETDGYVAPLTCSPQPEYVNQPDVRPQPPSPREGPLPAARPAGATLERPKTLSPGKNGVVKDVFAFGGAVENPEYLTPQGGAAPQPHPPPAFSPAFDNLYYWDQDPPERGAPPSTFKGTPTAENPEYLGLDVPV

Data set [6] deals with ErbB2 with Exon 20 YVMA insertion (HER2-YVMA) (Homo sapiens (Human), UniProt P04626, INS775YVMA). Nature of the data set: Cellular phosphorylation assay, constitutive ErbB2 phosphorylation (Y1196) in engineered NIH 3T3 cells, Assay 4. In kind it is cell-based. In a few lines: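 In-cell Western in NIH 3T3 cells carrying ErbB2 exon 20 YVMA insertion, with no ligand stimulation. One hour compound exposure at 37 °C before fixation and anti-pY1196 plus GAPDH staining with dual-wavelength fluorescence. IC50 derived after GAPDH normalization.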
ErbB2 with Exon 20 YVMA insertion (HER2-YVMA), sequence (P04626 other isoform, or with tags, fused parts or gaps ins YVMA behind 775): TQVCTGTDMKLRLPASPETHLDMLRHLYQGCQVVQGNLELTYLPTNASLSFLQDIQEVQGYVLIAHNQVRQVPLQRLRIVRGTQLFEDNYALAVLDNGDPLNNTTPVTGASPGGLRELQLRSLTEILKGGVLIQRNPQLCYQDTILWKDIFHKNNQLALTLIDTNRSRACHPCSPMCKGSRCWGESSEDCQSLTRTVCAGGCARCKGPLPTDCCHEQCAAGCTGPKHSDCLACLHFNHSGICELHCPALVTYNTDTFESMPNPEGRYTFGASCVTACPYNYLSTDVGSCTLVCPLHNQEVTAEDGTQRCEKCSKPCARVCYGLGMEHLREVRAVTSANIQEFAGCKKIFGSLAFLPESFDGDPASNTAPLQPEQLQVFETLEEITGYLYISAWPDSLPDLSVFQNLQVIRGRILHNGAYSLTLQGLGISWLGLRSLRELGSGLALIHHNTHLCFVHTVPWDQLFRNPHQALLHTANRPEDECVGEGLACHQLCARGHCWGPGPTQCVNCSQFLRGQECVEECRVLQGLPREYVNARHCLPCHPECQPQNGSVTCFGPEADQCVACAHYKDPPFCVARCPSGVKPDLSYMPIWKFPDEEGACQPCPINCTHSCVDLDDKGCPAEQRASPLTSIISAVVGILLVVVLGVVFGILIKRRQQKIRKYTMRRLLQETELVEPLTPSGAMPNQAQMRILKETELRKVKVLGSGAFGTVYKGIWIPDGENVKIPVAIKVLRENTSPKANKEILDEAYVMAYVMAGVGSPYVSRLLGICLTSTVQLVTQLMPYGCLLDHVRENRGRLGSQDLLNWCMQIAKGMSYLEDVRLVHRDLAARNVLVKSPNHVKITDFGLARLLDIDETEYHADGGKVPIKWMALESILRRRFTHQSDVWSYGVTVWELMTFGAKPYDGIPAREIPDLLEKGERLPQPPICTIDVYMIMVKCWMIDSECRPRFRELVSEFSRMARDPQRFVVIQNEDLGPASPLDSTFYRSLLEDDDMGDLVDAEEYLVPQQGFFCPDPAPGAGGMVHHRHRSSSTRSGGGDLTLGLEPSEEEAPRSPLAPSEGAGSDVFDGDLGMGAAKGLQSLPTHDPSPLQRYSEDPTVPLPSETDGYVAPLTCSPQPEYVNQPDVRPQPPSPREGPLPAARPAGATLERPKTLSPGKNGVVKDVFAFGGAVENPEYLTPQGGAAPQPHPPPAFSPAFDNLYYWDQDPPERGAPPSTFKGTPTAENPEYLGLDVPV

In data set [7] the target is MDR1 (P-gp) (Homo sapiens (Human), UniProt P08183). Nature of the data set: MDR1 transfected MDCKII canine Mdr1 knockout permeability/efflux, Assay 7. The settings on record: dog, MDCK-MDR1.
The mark [8] stands for this setting: Assay 9 Pe Ratio, efflux ratio Papp(B-A)/Papp(A-B), BCRP transfected MDCKII canine Mdr1 knockout.

By IC50 is commonly meant the concentration at which inhibition is half-maximal. As a reminder, the efflux ratio is the permeability from basolateral to apical divided by that in the opposite direction, in the common usage.

For `CO[C@@H]1CN(c2ncc3ncnc(Nc4ccc(Oc5ccc6c(c5)ncn6C)c(C)c4)c3n2)C[C@@H]1O` [Example 194, (3S,4R)-4-methoxy-1-(8-((3-methyl-4-((1-methyl-1H-benzo[d]imidazol-5-yl)oxy)phenyl)amino)pyrimido[5,4-d]pyrimidin-2-yl)pyrrolidin-3-ol], the IC50 in data set [1] was at least 5 µM; in data set [3] it was 8.73 µM; in data set [4], 0.0178 µM; in data set [5], 0.0235 µM; in data set [6], 0.0445 µM. In addition, the values for the efflux ratio at 2 h, 1 μM in data set [2] (setting [8]) and in data set [7] were 32.4 and 1.9, respectively.
Consider `Cc1cc(Nc2ncnc3cnc(N4CCC[C@@](C)(O)C4)nc23)ccc1Oc1ccc2c(c1)ncn2C` [Example 196, (R)-3-methyl-1-(8-((3-methyl-4-((1-methyl-1H-benzo[d]imidazol-5-yl)oxy)phenyl)amino)pyrimido[5,4-d]pyrimidin-2-yl)piperidin-3-ol], for which the IC50 is at least 5 µM in data set [1]; 0.883 µM in data set [3]; 0.0082 µM in data set [4]; 0.0091 µM in data set [5]; 0.0087 µM in data set [6]. The efflux ratio at 2 h, 1 μM came out at 13.2 in data set [2] (setting [8]) and 1.6 in data set [7].
As to `CO[C@H]1CN(c2ncc3ncnc(Nc4ccc(Oc5ccc6c(c5)ncn6C)c(C)c4)c3n2)C[C@H]1O` [Example 197, (3R,4S)-4-methoxy-1-(8-((3-methyl-4-((1-methyl-1H-benzo[d]imidazol-5-yl)oxy)phenyl)amino)pyrimido[5,4-d]pyrimidin-2-yl)pyrrolidin-3-ol], the IC50 in data set [1] was at least 5 µM; in data set [3] it was 8.64 µM; in data set [4], 0.0141 µM; in data set [5], 0.021 µM; in data set [6], 0.0449 µM. Further, the efflux ratio at 2 h, 1 μM stood at 35.7 in data set [2] (setting [8]) and 1.8 in data set [7].
`Cc1cc(Nc2ncnc3cnc(N4C[C@H](O)C(F)(F)C4)nc23)c(F)cc1Oc1ccc2c(c1)ncn2C` [Example 202, (S)-4,4-difluoro-1-(8-((2-fluoro-5-methyl-4-((1-methyl-1H-benzo[d]imidazol-5-yl)oxy)phenyl)amino)pyrimido[5,4-d]pyrimidin-2-yl)pyrrolidin-3-ol]: the IC50 is at least 5 µM in data set [1]; at least 10 µM in data set [3]; 0.0257 µM in data set [4]; 0.0311 µM in data set [5]; 0.0492 µM in data set [6]. Besides, the values for the efflux ratio at 2 h, 1 μM in data set [2] (setting [8]) and in data set [7] were 6.4 and 1.2, respectively.
For the compound `Cc1cc(Nc2ncnc3cnc(N4CC5(C4)CC(O)(C(F)F)C5)nc23)ccc1Oc1ccc2c(c1)ncn2C` [Example 210, 6-(difluoromethyl)-2-(8-((3-methyl-4-((1-methyl-1H-benzo[d]imidazol-5-yl)oxy)phenyl)amino)pyrimido[5,4-d]pyrimidin-2-yl)-2-azaspiro[3.3]heptan-6-ol], the IC50 in data set [1] was at least 5 µM; in data set [3], at least 10 µM; in data set [4], 0.0405 µM; in data set [5], 0.0302 µM; in data set [6], 0.027 µM. Besides, the efflux ratio at 2 h, 1 μM in data set [2] was found to be 36.8; in data set [7], 1.7.
Take `Cc1cc(Nc2ncnc3cnc(N4C[C@@H](O)C5(CC5)C4)nc23)ccc1Oc1ccc2c(c1)ncn2C` [Example 211, (S)-5-(8-((3-methyl-4-((1-methyl-1H-benzo[d]imidazol-5-yl)oxy)phenyl)amino)pyrimido[5,4-d]pyrimidin-2-yl)-5-azaspiro[2.4]heptan-7-ol]: the IC50 is at least 5 µM in data set [1]; 3.14 µM in data set [3]; 0.0109 µM in data set [4]; 0.031 µM in data set [5]; 0.0148 µM in data set [6]. The efflux ratio at 2 h, 1 μM in data set [2] came to 25.2; in data set [7], 3.3.
On to `Cc1cc(Nc2ncnc3cnc(N4C[C@H](O)C5(CC5)C4)nc23)ccc1Oc1ccc2c(c1)ncn2C` [Example 212, (R)-5-(8-((3-methyl-4-((1-methyl-1H-benzo[d]imidazol-5-yl)oxy)phenyl)amino)pyrimido[5,4-d]pyrimidin-2-yl)-5-azaspiro[2.4]heptan-7-ol], for which the IC50 is at least 5 µM in data set [1]; 2.41 µM in data set [3]; 0.0128 µM in data set [4]; 0.0229 µM in data set [5]; 0.0103 µM in data set [6]. The results for the efflux ratio at 2 h, 1 μM in data set [2] and in data set [7] were 31.4 and 2.8, respectively.
As to `Cc1cc(Nc2ncnc3cnc(N4CC[C@@](C)(O)C4)nc23)c(F)cc1Oc1ccc2c(c1)ncn2C` [Example 214, (R)-1-(8-((2-fluoro-5-methyl-4-((1-methyl-1H-benzo[d]imidazol-5-yl)oxy)phenyl)amino)pyrimido[5,4-d]pyrimidin-2-yl)-3-methylpyrrolidin-3-ol], the IC50 in data set [1] is at least 5 µM; in data set [3] it was at least 10 µM; in data set [4], 0.0154 µM; in data set [5], 0.0466 µM; in data set [6], 0.0281 µM. The efflux ratio at 2 h, 1 μM in data set [2] (setting [8]) worked out at 8.8; in data set [7], 1.5.
`Cc1cc(Nc2ncnc3cnc(N4CCC[C@@](C)(O)C4)nc23)c(F)cc1Oc1ccc2c(c1)ncn2C` [Example 218, (R)-1-(8-((2-fluoro-5-methyl-4-((1-methyl-1H-benzo[d]imidazol-5-yl)oxy)phenyl)amino)pyrimido[5,4-d]pyrimidin-2-yl)-3-methylpiperidin-3-ol]: the IC50 was at least 5 µM in data set [1]; at least 10 µM in data set [3]; 0.0416 µM in data set [4]; 0.0403 µM in data set [5]; 0.0438 µM in data set [6]. Besides, the efflux ratio at 2 h, 1 μM in data set [2] (setting [8]) was determined as 2.4; in data set [7], 1.5.
Regarding `Cc1cc(Nc2ncnc3cnc(N4CCO[C@H](C)C4)nc23)ccc1Oc1ccc2c(c1)ncn2C` [Example 265], the IC50 in data set [1] was at least 5 µM; in data set [3], 5.35 µM; in data set [4], 0.0465 µM; in data set [5], 0.0456 µM; in data set [6], 0.0168 µM. Moreover, the efflux ratio at 2 h, 1 μM in data set [2] (setting [8]) was 1.8; in data set [7] it was 1.1.
Turning to `Cc1cc(Nc2ncnc3cnc(N4CCC(F)(F)C4)nc23)ccc1Oc1ccc2c(c1)ncn2C` [Example 299], the IC50 in data set [1] is at least 5 µM; in data set [3], at least 10 µM; in data set [4] it was 0.0498 µM; in data set [5], 0.146 µM; in data set [6], 0.0305 µM. Besides, the efflux ratio at 2 h, 1 μM in data set [2] (setting [8]) worked out at 1.2; in data set [7], 0.4.
For `Cc1c(Oc2ccn3ncnc3c2)ccc(Nc2ncnc3cnc(N4CCC(C)(O)CC4)nc23)c1F` [Example 304], the IC50 in data set [1] is at least 5 µM; in data set [3], 2.84 µM; in data set [4], 0.0117 µM; in data set [5], 0.0486 µM; in data set [6] it was 0.114 µM. Further, the efflux ratio at 2 h, 1 μM in data set [2] (setting [8]) is 7.3; in data set [7], 1.2.
With `Cc1cc(Nc2ncnc3cnc(N4C[C@@H]5COC[C@@H]54)nc23)ccc1Oc1ccc2c(c1)ncn2C` [Example 348], the IC50 in data set [1] is at least 5 µM; in data set [3], at least 10 µM; in data set [4], 0.0401 µM; in data set [5] it was 0.0691 µM; in data set [6] it was 0.0145 µM. The efflux ratio at 2 h, 1 μM turned out to be 5 in data set [2] (setting [8]) and 1.4 in data set [7].
